Results on 78 compounds are retold here after PubChem BioAssay AID720632 (Broad Institute, 2013).

Structures are written as SMILES. Activity calls are given as the source filed them. No rule for the calls is given here.

The target of the first assay is Caspase-6 (Homo sapiens) (UniProt P55212). The assay can be described thus: inhibition of CASP6 peptide cleavage – biochemical, VEID-R110 fluorescence, cherry-pick, dose response (AID 720632). The conditions noted are these: caspase-6, VEID-R110 fluorogenic substrate.
Chain of Caspase-6 (Homo sapiens) (P55212 24-179 limits assumed): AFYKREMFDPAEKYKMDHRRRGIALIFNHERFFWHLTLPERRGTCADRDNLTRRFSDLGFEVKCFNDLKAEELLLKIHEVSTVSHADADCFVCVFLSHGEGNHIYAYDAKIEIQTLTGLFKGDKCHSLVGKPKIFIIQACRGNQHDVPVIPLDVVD
Chain of Caspase-6 (Homo sapiens) (P55212 194-293 limits assumed): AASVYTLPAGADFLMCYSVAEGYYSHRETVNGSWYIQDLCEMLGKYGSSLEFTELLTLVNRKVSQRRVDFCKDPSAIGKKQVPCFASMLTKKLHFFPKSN
In general, AC50 refers to the concentration giving half of the maximal activity seen. For `C[c-]1[c-](C)[c-](C)[c-](C)[c-]1C.[Fe].c1cc2nccc(N3CCCC3)[c-]2c1` (stereo not drawn), the concentration at half-maximal activity (AC50) is 5.86 µM.

The assay is the same for the next values; noted with them: caspase-6, VEID-R110 fluorogenic substrate; at 23.5 µM (top of the series).
Consider `COc1ccccc1C(=O)Nc1ccc2c(c1)OC[C@@H](C)N(CC1CC1)C[C@@H](C)[C@H](OC)CN(C)C2=O`, for which the “activity change, negative = inhibition” value is “inactive”.

Staying with this assay, now noted: caspase-6, VEID-R110 fluorogenic substrate; at 26 µM (top of the series).
For `COCC(=O)Nc1ccc2c(c1)OC[C@@H](C)N(CC1CC1)C[C@H](C)[C@@H](OC)CN(C)C2=O`, the “activity change, negative = inhibition” value was “inactive”.

Regarding `O=C1Cc2cc(S(=O)(=O)N3CCN(c4ccc(C(=O)O)cc4)CC3)ccc2N1`, the “activity change, negative = inhibition” value is “inactive”.

As for `CCNC(=S)N1CCCCC1CO` (stereo not drawn), the “activity change, negative = inhibition” value is “inactive”.

`CCC(CC)COC(=O)C1=C(C)NC(=O)NC1c1cc(OC)ccc1OC` (stereo not drawn): the “activity change, negative = inhibition” value was “inactive”.

Take `O=C(O)C1C=Cc2ccccc2N1C(=O)c1ccccc1` (stereo not drawn) (tested in a mixture with another compound): the “activity change, negative = inhibition” value is “inactive”.

Regarding `Nc1ccc2cn[nH]c2c1`, the “activity change, negative = inhibition” value is “inactive”.

As to `O=C(COC(=O)c1ccc([N+](=O)[O-])o1)NC1CCCCC1`, the “activity change, negative = inhibition” value is “inactive”.

On to `Cc1noc(C)c1COc1ccccc1C(=O)N(C)CC(=O)Nc1ccc(F)c(F)c1F`, for which the “activity change, negative = inhibition” value was “inactive”.

`Cc1ccc2oc(C(=O)N(Cc3ccc(N(C)C)cc3)C3CCS(=O)(=O)C3)c(C)c2c1` (stereo not drawn): the “activity change, negative = inhibition” value was “inactive”.

As for `Clc1cccc(-c2nn3c(Cn4cnc5ccccc54)nnc3s2)c1`, the “activity change, negative = inhibition” value was “inactive”.

Consider `Cn1c(=O)[nH]c(=O)c2c1nc(CN1CCOCC1)n2Cc1ccccc1`, for which the “activity change, negative = inhibition” value was “inactive”.

For the compound `CCCN1C[C@H](C)[C@@H](OC)CN(C)C(=O)c2ccc(NC(=O)CC)cc2OC[C@@H]1C`, the “activity change, negative = inhibition” value was “inactive”.

As for `Cc1cc(-n2nnc3ccccc32)nc2ccccc12`, the “activity change, negative = inhibition” value was “inactive”.

In the case of `CCCC(=O)Nc1ccc2c(c1)OC[C@@H](C)NC[C@@H](C)[C@@H](OC)CN(C)C2=O`, the “activity change, negative = inhibition” value was “inactive”.

With `CCCCCn1nnnc1-c1nc2cc(C)c(C)cc2[nH]c1=O`, the “activity change, negative = inhibition” value is “inactive”.

`Oc1ccc(/C=N/N=C/c2ccc(O)c(O)c2)cc1O`: the “activity change, negative = inhibition” value was “inactive”.

Regarding `O=C(N/N=C/c1ccc(O)cc1O)C(=O)N/N=C/c1ccc(O)cc1O`, the “activity change, negative = inhibition” value is “inactive”.

`Cc1ccc(Nc2ncnc3sccc23)c(C)c1`: the “activity change, negative = inhibition” value was “inactive”.

For the compound `COc1ccccc1NS(=O)(=O)c1cc(C(=O)NC2CCN(Cc3ccccc3)CC2)ccc1C`, the “activity change, negative = inhibition” value is “inactive”.

For `OCc1ccccc1-c1nc(NCc2ccccc2)nc2ccsc12`, the “activity change, negative = inhibition” value was “inactive”.

Regarding `CCOc1ncccc1C(=O)OC(C)C(=O)Nc1ccc(N2CCOCC2)cc1` (stereo not drawn), the “activity change, negative = inhibition” value is “inactive”.

As for `COc1cc(Br)cc(CN2CCN(C/C=C/c3ccccc3)CC2)c1O`, the “activity change, negative = inhibition” value is “inactive”.

`C=C1[C@H](C)CN[C@H]1CCO`: the “activity change, negative = inhibition” value was “inactive”.

Regarding `O=C(Nc1cc(Cl)cc(Cl)c1)c1coc(=O)c(Br)c1`, the “activity change, negative = inhibition” value is “inactive”.

As for `Cc1ccccc1C(=O)O/N=C(\N)c1ccccc1`, the “activity change, negative = inhibition” value was “inactive”.

Turning to `C/C(=N\NC(=O)c1ccccc1O)C1CC1`, the “activity change, negative = inhibition” value was “inactive”.

For `CN1C(=O)CC(Sc2ccccc2C(=O)O)C1=O` (stereo not drawn), the “activity change, negative = inhibition” value was “inactive”.

For the compound `CO[C@H]1CN(C)C(=O)c2ccc(NC(=O)C3CC3)cc2OC[C@H](C)N(Cc2cccc(F)c2)C[C@H]1C`, the “activity change, negative = inhibition” value was “inactive”.

On to `O=[N+]([O-])c1ccc(NCCN2CCOCC2)c([N+](=O)[O-])c1`, for which the “activity change, negative = inhibition” value was “inactive”.

Consider `CO[C@@H]1CN(C)C(=O)c2ccc(NC(=O)C3CC3)cc2OC[C@H](C)N(Cc2ccccc2)C[C@H]1C`, for which the “activity change, negative = inhibition” value was “inactive”.

`O=C(NNC(=O)c1ccccc1O)c1ccccc1O`: the “activity change, negative = inhibition” value was “inactive”.

On to `Oc1ccc(/C=N/Nc2ccnc3cc(Cl)ccc23)c(O)c1`, for which the “activity change, negative = inhibition” value was “inactive”.

On to `CCN(CC)C1CCN(Cc2c(C(=O)N3CCCCCCC3)nc3ccc(Cl)cn23)C1` (stereo not drawn), for which the “activity change, negative = inhibition” value was “inactive”.

Regarding `O=C([C@H]1[C@H](CO)[C@H]2Cn3c(cccc3=O)[C@H]2N1Cc1cc(F)ccc1F)N1CCOCC1`, the “activity change, negative = inhibition” value is “inactive”.

As for `CCCN1C[C@H](C)[C@H](OC)CN(C)C(=O)c2ccc(NC(=O)c3ccccc3)cc2OC[C@H]1C`, the “activity change, negative = inhibition” value was “inactive”.

As to `Cc1ccc(NC(=O)C(c2ccccc2)N2CCN(CC(=O)N3CCOCC3)CC2)cc1Cl` (stereo not drawn), the “activity change, negative = inhibition” value was “inactive”.

On to `O=C(CNC(=O)Cc1ccccc1)NCc1cccs1`, for which the “activity change, negative = inhibition” value was “inactive”.

With `CC(C)(C)N(Cc1ccccc1)C(=O)COC(=O)c1ccc([N+](=O)[O-])o1`, the “activity change, negative = inhibition” value was “inactive”.

`COc1ccc(N2CCN(C(=O)CCCn3c(=S)[nH]c4cc5c(cc4c3=O)OCO5)CC2)cc1`: the “activity change, negative = inhibition” value is “inactive”.

Turning to `CSc1ccc(CN2CCC2(C)C(=O)Nc2cccc(NS(C)(=O)=O)c2)cc1` (stereo not drawn), the “activity change, negative = inhibition” value was “inactive”.

`C=CCNc1nc(Nc2cc(Cl)ccc2OC)nc(OC)n1`: the “activity change, negative = inhibition” value is “inactive”.

Turning to `O=C(Oc1cccc(-n2cnnn2)c1)c1ccccc1Cl`, the “activity change, negative = inhibition” value was “inactive”.

Take `C[C@H](CO)N1C[C@H](C)[C@@H](CN(C)C(=O)c2ccncc2)OCc2cnnn2CCCC1=O`: the “activity change, negative = inhibition” value is “inactive”.

As for `CC1(Oc2cnc(Cl)c3ccccc23)CCN(Cc2ccc(OC(F)(F)F)cc2)C1` (stereo not drawn), the “activity change, negative = inhibition” value is “inactive”.

For `CC(=O)N1CCc2c(sc(NC(=O)Cc3ccccc3)c2C(N)=O)C1`, the “activity change, negative = inhibition” value was “inactive”.

Turning to `COc1ccccc1-n1c(CNC(=O)c2ccc(S(=O)(=O)N3CCCCC3)cc2)n[nH]c1=S`, the “activity change, negative = inhibition” value is “inactive”.

In the case of `CN1CCN(NC(=O)NC2CCCCC2)CC1`, the “activity change, negative = inhibition” value was “inactive”.

As for `c1ccc(CCNc2ccc3ncc(-c4cccc5ccccc45)n3n2)nc1`, the “activity change, negative = inhibition” value is “inactive”.

As to `CCN(CC)c1ccc2c(cc1=O)[C@@H](NC)CCc1cc(OC)c(OC)c(OC)c1-2`, the “activity change, negative = inhibition” value is “inactive”.

`O=C(NCc1ccncc1)c1ccc(OCc2ccccc2)cc1`: the “activity change, negative = inhibition” value is “inactive”.

With `COc1cc(CNC(C)c2ccccc2)c(Br)cc1OCC(N)=O` (stereo not drawn), the “activity change, negative = inhibition” value was “inactive”.

As for `CCC(=O)N1C[C@H](C)[C@H](OC)CN(C)C(=O)c2ccc(NC(=O)c3ccccc3)cc2OC[C@H]1C`, the “activity change, negative = inhibition” value was “inactive”.

For the compound `Cc1onc(-c2ccc(Cl)cc2Cl)c1-c1csc(N/N=C/c2ccccc2Cl)n1`, the “activity change, negative = inhibition” value is “inactive”.

For `Cc1ccc(C(=O)N/N=C\c2ccc(OC(=O)c3cccc(F)c3)cc2)cn1`, the “activity change, negative = inhibition” value was “inactive”.

As for `COc1ccc(OC)c(N/C(=N/c2nc(C)cc(C)n2)NC(C)=O)c1`, the “activity change, negative = inhibition” value was “inactive”.

Take `CC(C)NC(=O)C1(C)CCN1C(=O)c1ccc2c(c1)OCO2` (stereo not drawn): the “activity change, negative = inhibition” value is “inactive”.

In the case of `Nc1ccccc1Sc1ccc(C(=O)c2ccccc2C(=O)O)cc1[N+](=O)[O-]`, the “activity change, negative = inhibition” value is “inactive”.

As for `CC1(C)C(=O)Nc2ccccc2N1C(=O)COC(=O)c1ccc([N+](=O)[O-])o1`, the “activity change, negative = inhibition” value was “inactive”.

In the case of `Cc1ccc([N+](=O)[O-])cc1NC(=O)C(C)N1CCCCC1` (stereo not drawn), the “activity change, negative = inhibition” value is “inactive”.

With `CC(C)(C)c1ccc(C(=O)Nc2ccc(S(=O)(=O)Nc3cnc4ccccc4n3)cc2)cc1`, the “activity change, negative = inhibition” value is “inactive”.

As to `COc1cc(/C=C2\SC(=O)NC2=O)ccc1Oc1ccc([N+](=O)[O-])cc1[N+](=O)[O-]`, the “activity change, negative = inhibition” value was “inactive”.

For the compound `COCC(=O)Nc1ccc2c(c1)OC[C@H](C)N(CC1CC1)C[C@H](C)[C@H](OC)CN(C)C2=O`, the “activity change, negative = inhibition” value was “inactive”.

`O=C(CCN1C(=O)NC2(CCCC2)C1=O)Nc1cccc(S(=O)(=O)N2CCOCC2)c1`: the “activity change, negative = inhibition” value was “inactive”.

For `N#CC1=C(N)Oc2cc(N)ccc2C1c1ccccc1` (stereo not drawn), the “activity change, negative = inhibition” value is “inactive”.

In the case of `CC(C)(C)NC(=O)C1CCN(S(=O)(=O)c2cccc3nsnc23)CC1`, the “activity change, negative = inhibition” value is “inactive”.

Regarding `CC(C)CN1CCC(CN2CCNC(=O)C2=O)CC1`, the “activity change, negative = inhibition” value is “inactive”.

Regarding `CCO[C@H]1OC(C(=O)N2CCOCC2)=C[C@@H](c2ccc3c(c2)OCO3)[C@@H]1CCCO`, the “activity change, negative = inhibition” value was “inactive”.

Regarding `C=CCC(NCc1ccccc1)c1ccc(Cl)cc1` (stereo not drawn), the “activity change, negative = inhibition” value was “inactive”.

Take `CN1CCN(C(=O)c2cc(Cl)cc(Cl)c2)CC1`: the “activity change, negative = inhibition” value is “inactive”.

`O=C(Nc1ccccc1)c1ccccc1OCc1cccc([N+](=O)[O-])c1`: the “activity change, negative = inhibition” value is “inactive”.

For the compound `CCc1ccccc1OCC(=O)OCC(=O)N1CC(=O)Nc2ccccc21`, the “activity change, negative = inhibition” value was “inactive”.

`CSCCC(NC(=O)COc1ccccc1)C(=O)N(C)CC(=O)Nc1c(C)cccc1C` (stereo not drawn): the “activity change, negative = inhibition” value was “inactive”.

For `O=C(OCc1ccccc1)N1CCCC2CC1c1ccccc12` (stereo not drawn), the “activity change, negative = inhibition” value is “inactive”.

In the case of `CN1CCN(c2cc(CNC[C@H]3O[C@@H](n4cnc5c(=O)[nH]c(N)nc54)[C@H](O)[C@@H]3O)ccc2F)CC1`, the “activity change, negative = inhibition” value is “inactive”.

Regarding `CN1C(=O)NC(=O)C(N=Nc2ccc(Cl)cc2)C1=O` (stereo not drawn), the “activity change, negative = inhibition” value is “inactive”.

With `C/C(=N/NS(=O)(=O)c1ccc(Cl)cc1)c1cccc(NC(=O)c2ccncc2)c1`, the “activity change, negative = inhibition” value was “inactive”.
